Legend:
[1] = tested on: MMP-9; experiment: ELISA of MMP-9 protein in RGC-5 cells under H2O2 oxidative stress; assay type: cell-based; conditions: 100 μM SAC 15-minute pre-treatment, 500 μM H2O2 24 hours; control 29.33±4.93, H2O2 100.70±18.80; n=6
Protocol: In the enzyme-linked immunosorbent assay (ELISA), the cells (2.5×10^4 in each well) were plated into 96-well plates. Each well contains 200 μl of DMEM (control) without or with H2O2. Next, the cells were incubated at 37° C. for 1 day and then shifted to serum free medium for the following day. In order to stimulate oxidative stress, 500 μM H2O2 (Sigma-Aldrich 18304/k0250, St Louis, Mo., USA) was then added for 24 hours as described elsewhere. Depending on the experimental protocol, SAC or vehicle was added to some samples 15 minutes before adding H2O2. […] Total protein was determined using a bicinchoninic acid protein kit (Thermo Fisher Scientific Inc., IL, U.S.A.). The HIF-1 Alpha/VEGF/MMP-9 levels in the cells/medium were measured using various ELISA kits, namely HIF-1 Alpha (Uscn Life Science Inc., Wuhan 430056, China); VEGF-A (BMS277/2, Bender […], Austria) and MMP-9 Duoset (D911, R&D, Minneapolis, Minn., U.S.A.). […] The HIF-1 Alpha/VEGF/MMP-9 concentration of each sample was determined by constructing a standard curve using 100 μl of sample diluent containing various amounts of HIF-1 Alpha/VEGF/MMP-9 pure protein (0-1000 pg/ml). […] The absorbance (optical intensity, O.D.) was detected at 450 nm by spectrophotometer (ELx800, Biotek, Winooski, Vt., U.S.A.). […]

[2] = tested on: RGC-5 cells; experiment: RGC-5 cell viability under H2O2 induced oxidative stress; assay type: cell-based; conditions: RGC5, then 500 μM H2O2 24 hours, H2O2 alone 42.05±6.10%, n=6, read-out: RGC-5 cell viability (control: 100%)
Protocol: The RGC-5 cell line was obtained from the American Type Culture Collection (ATCC, No. CRL-2302, Manassas, Va., USA). The RGC-5 cell line represents a lineage of neuronal precursor cells. The RGC-5 cells were maintained in Dulbecco's modified Eagle's medium (DMEM; Falcon, Becton Dickinson, N.J., U.S.A.) containing 10% fetal calf serum, 100 U/mL penicillin and 100 μg/mL streptomycin (Sigma-Aldrich) in a humidified atmosphere of 95% air and 5% CO2 at 37° C. Cell viability was evaluated by counting the cell number using a haemocytometer under an optical microscope.
In the enzyme-linked immunosorbent assay (ELISA), the cells (2.5×10^4 in each well) were plated into 96-well plates. Each well contains 200 μl of DMEM (control) without or with H2O2. Next, the cells were incubated at 37° C. for 1 day and then shifted to serum free medium for the following day. In order to stimulate oxidative stress, 500 μM H2O2 (Sigma-Aldrich 18304/k0250, St Louis, Mo., USA) was then added for 24 hours as described elsewhere. Depending on the experimental protocol, SAC or vehicle was added to some samples 15 minutes before adding H2O2.

C=CCSC[C@H](N)C(=O)O [SAC, S-allyl L-cysteine]
MMP-9 protein level (ELISA) [1]: 52.55 ± 2.72 pg/mL | viability at 25 µM ([2]; 25 μM SAC 15-minute pre-incubation): 47.7 ± 4.53% | viability at 50 µM ([2]; 50 μM SAC 15-minute pre-incubation): 57.5 ± 3.48% | viability at 100 µM ([2]; 100 μM SAC 15-minute pre-incubation): 70.2 ± 3.32%

Source: patent US8569372B2, “Method for preventing or treating a disease, disorder or condition induced by retina ischemia” (priority 2011, dated 2013)
